Columns and labels:
late watergrass = assay: Test Example 1: herbicidal activity, application before weed generation under submerged conditions (Table 16, symbol A); type: in vivo, late watergrass (Echinochloa oryzicola); details: amount of applied herbicide 320 g/ha
Procedure, shortened: (§1)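 Submerged Wagner pots (alluvial soil, 4 cm water) sown with weed seeds and planted with 2.5-leaf rice seedlings; emulsifiable concentrate diluted in water applied to water surface on sowing day. Held in greenhouse at 25-30 °C; injury scored 0-5 by herbicidal rate after three weeks.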

Japanese bulrush = assay: Test Example 1: herbicidal activity, application before weed generation under submerged conditions (Table 16, symbol B); type: in vivo, Japanese bulrush (Schoenoplectus juncoides); details: amount of applied herbicide 320 g/ha
Procedure, shortened: as §1

oval-leafed pondweed = assay: Test Example 1: herbicidal activity, application before weed generation under submerged conditions (Table 16, symbol C); type: in vivo, oval-leafed pondweed (Monochoria vaginalis); details: amount of applied herbicide 320 g/ha
Procedure, shortened: as §1

barnyard grass [1] = assay: Test Example 3: herbicidal effect by foliage application, Wagner pot (Table 18, symbol H); type: in vivo, barnyard grass (Echinochloa crus-galli); details: 320 g/ha
Procedure, shortened: (§2)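 Plants were sown in alluvial soil held under 0.1–0.5 cm standing water and grown 14 days in a greenhouse at 25–30 °C. An emulsifiable formulation, water-diluted to the set dose, was then sprayed onto the foliage, and effects were scored three weeks later using previously defined criteria.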

Chinese sprangletop = assay: Test Example 3: herbicidal effect by foliage application, Wagner pot (Table 18, symbol D); type: in vivo, chinese sprangletop (Leptochloa chinensis); details: 320 g/ha
Procedure, shortened: as §2

rice flat sedge = assay: Test Example 3: herbicidal effect by foliage application, Wagner pot (Table 18, symbol E); type: in vivo, rice flat sedge (Cyperus iria); details: 320 g/ha
Procedure, shortened: as §2

southern crabgrass [2] = assay: Test Example 4: herbicidal effect by soil treatment (Table 19, symbol F); type: in vivo, southern crabgrass (Digitaria ciliaris); details: amount of applied herbicide 320 g/ha
Procedure, shortened: (§3)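 Pre-emergence style soil spray: seeds under ~1.5 cm sterilized diluvial soil received a uniform coat of emulsion diluted to the predetermined herbicide amount. Greenhouse 25–30° C; readout at week three on previously defined criteria.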

green foxtail [3] = assay: Test Example 4: herbicidal effect by soil treatment (Table 19, symbol G); type: in vivo, green foxtail (Setaria viridis); details: amount of applied herbicide 320 g/ha
Procedure, shortened: as §3

barnyard grass [4] = assay: Test Example 4: herbicidal effect by soil treatment (Table 19, symbol H); type: in vivo, barnyard grass (Echinochloa crus-galli); details: amount of applied herbicide 320 g/ha
Procedure, shortened: as §3

wild oat [5] = assay: Test Example 4: herbicidal effect by soil treatment (Table 19, symbol I); type: in vivo, wild oat (Avena fatua); details: amount of applied herbicide 320 g/ha
Procedure, shortened: as §3

blackgrass [6] = assay: Test Example 4: herbicidal effect by soil treatment (Table 19, symbol J); type: in vivo, blackgrass (Alopecurus myosuroides); details: amount of applied herbicide 320 g/ha
Procedure, shortened: as §3

Italian ryegrass [7] = assay: Test Example 4: herbicidal effect by soil treatment (Table 19, symbol K); type: in vivo, Italian ryegrass (Lolium multiflorum); details: amount of applied herbicide 320 g/ha
Procedure, shortened: as §3

windgrass [8] = assay: Test Example 4: herbicidal effect by soil treatment (Table 19, symbol L); type: in vivo, windgrass (Apera spica-venti); details: amount of applied herbicide 320 g/ha
Procedure, shortened: as §3

velvetleaf [9] = assay: Test Example 4: herbicidal effect by soil treatment (Table 19, symbol M); type: in vivo, velvetleaf (Abutilon theophrasti); details: amount of applied herbicide 320 g/ha
Procedure, shortened: as §3

redroot pigweed [10] = assay: Test Example 4: herbicidal effect by soil treatment (Table 19, symbol N); type: in vivo, redroot pigweed (Amaranthus retroflexus); details: amount of applied herbicide 320 g/ha
Procedure, shortened: as §3

lambsquarters [11] = assay: Test Example 4: herbicidal effect by soil treatment (Table 19, symbol O); type: in vivo, lambsquarters (Chenopodium album); details: amount of applied herbicide 320 g/ha
Procedure, shortened: as §3

chickweed [12] = assay: Test Example 4: herbicidal effect by soil treatment (Table 19, symbol P); type: in vivo, common chickweed (Stellaria media); details: amount of applied herbicide 320 g/ha
Procedure, shortened: as §3

persian speedwell [13] = assay: Test Example 4: herbicidal effect by soil treatment (Table 19, symbol R); type: in vivo, Persian speedwell (Veronica persica); details: amount of applied herbicide 320 g/ha
Procedure, shortened: as §3

southern crabgrass [14] = assay: Test Example 5: herbicidal effect by foliage application, plastic box (Table 20, symbol F); type: in vivo, southern crabgrass (Digitaria ciliaris); details: 320 g/ha, foliage application after 14-day growth, evaluated three weeks after application
Procedure, shortened: (§4)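 Plants were sown into sterilized diluvial soil under about 1.5 cm cover and kept in a greenhouse at 25° C. to 30° C. Fourteen days on, foliage received an even spray of the diluted emulsion. Herbicidal or crop effect was judged three weeks afterwards.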

green foxtail [15] = assay: Test Example 5: herbicidal effect by foliage application, plastic box (Table 20, symbol G); type: in vivo, green foxtail (Setaria viridis); details: 320 g/ha, foliage application after 14-day growth, evaluated three weeks after application
Procedure, shortened: as §4

barnyard grass [16] = assay: Test Example 5: herbicidal effect by foliage application, plastic box (Table 20, symbol H); type: in vivo, barnyard grass (Echinochloa crus-galli); details: 320 g/ha, foliage application after 14-day growth, evaluated three weeks after application
Procedure, shortened: as §4

wild oat [17] = assay: Test Example 5: herbicidal effect by foliage application, plastic box (Table 20, symbol I); type: in vivo, wild oat (Avena fatua); details: 320 g/ha, foliage application after 14-day growth, evaluated three weeks after application
Procedure, shortened: as §4

blackgrass [18] = assay: Test Example 5: herbicidal effect by foliage application, plastic box (Table 20, symbol J); type: in vivo, blackgrass (Alopecurus myosuroides); details: 320 g/ha, foliage application after 14-day growth, evaluated three weeks after application
Procedure, shortened: as §4

Italian ryegrass [19] = assay: Test Example 5: herbicidal effect by foliage application, plastic box (Table 20, symbol K); type: in vivo, Italian ryegrass (Lolium multiflorum); details: 320 g/ha, foliage application after 14-day growth, evaluated three weeks after application
Procedure, shortened: as §4

windgrass [20] = assay: Test Example 5: herbicidal effect by foliage application, plastic box (Table 20, symbol L); type: in vivo, windgrass (Apera spica-venti); details: 320 g/ha, foliage application after 14-day growth, evaluated three weeks after application
Procedure, shortened: as §4

velvetleaf [21] = assay: Test Example 5: herbicidal effect by foliage application, plastic box (Table 20, symbol M); type: in vivo, velvetleaf (Abutilon theophrasti); details: 320 g/ha, foliage application after 14-day growth, evaluated three weeks after application
Procedure, shortened: as §4

redroot pigweed [22] = assay: Test Example 5: herbicidal effect by foliage application, plastic box (Table 20, symbol N); type: in vivo, redroot pigweed (Amaranthus retroflexus); details: 320 g/ha, foliage application after 14-day growth, evaluated three weeks after application
Procedure, shortened: as §4

lambsquarters [23] = assay: Test Example 5: herbicidal effect by foliage application, plastic box (Table 20, symbol O); type: in vivo, lambsquarters (Chenopodium album); details: 320 g/ha, foliage application after 14-day growth, evaluated three weeks after application
Procedure, shortened: as §4

chickweed [24] = assay: Test Example 5: herbicidal effect by foliage application, plastic box (Table 20, symbol P); type: in vivo, common chickweed (Stellaria media); details: 320 g/ha, foliage application after 14-day growth, evaluated three weeks after application
Procedure, shortened: as §4

persian speedwell [25] = assay: Test Example 5: herbicidal effect by foliage application, plastic box (Table 20, symbol R); type: in vivo, Persian speedwell (Veronica persica); details: 320 g/ha, foliage application after 14-day growth, evaluated three weeks after application
Procedure, shortened: as §4

With `CCCOc1ccc(-c2sc3c(F)cccc3c2-c2c(O)c(C)nn(C)c2=O)cc1` [4-009] the “Herbicidal effect, A: late watergrass” value (late watergrass) was 2 (Herbicidal rate of 20% or more and less than 40%), the “Herbicidal effect, B: Japanese bulrush” value (Japanese bulrush) was 1 (Herbicidal rate of 5% or more and less than 20%) and the “Herbicidal effect, C: oval-leafed pondweed” value (oval-leafed pondweed) was 0 (Herbicidal rate of 5% or less (almost no effect)). The “herbicidal effect on barnyard grass (H)” value (barnyard grass [1]) was 5 (Herbicidal rate of 90% or more (almost completely withered)), the “herbicidal effect on Chinese sprangletop (D)” value (Chinese sprangletop) was 3 (Herbicidal rate of 40% or more and less than 70%) and the “herbicidal effect on rice flat sedge (E)” value (rice flat sedge) was 5 (Herbicidal rate of 90% or more (almost completely withered)). The “Herbicidal effect by soil treatment, F: southern crabgrass” value (southern crabgrass [2]) was 0 (Herbicidal rate of 5% or less (almost no effect)), the “Herbicidal effect by soil treatment, G: green foxtail” value (green foxtail [3]) was 0 (Herbicidal rate of 5% or less (almost no effect)) and the “Herbicidal effect by soil treatment, H: barnyard grass” value (barnyard grass [4]) was 0 (Herbicidal rate of 5% or less (almost no effect)). The “Herbicidal effect by soil treatment, I: wild oat” value (wild oat [5]) was 0 (Herbicidal rate of 5% or less (almost no effect)), the “Herbicidal effect by soil treatment, J: blackgrass” value (blackgrass [6]) was 0 (Herbicidal rate of 5% or less (almost no effect)) and the “Herbicidal effect by soil treatment, K: Italian ryegrass” value (Italian ryegrass [7]) was 0 (Herbicidal rate of 5% or less (almost no effect)). The “Herbicidal effect by soil treatment, L: windgrass” value (windgrass [8]) was 0 (Herbicidal rate of 5% or less (almost no effect)), the “Herbicidal effect by soil treatment, M: velvetleaf” value (velvetleaf [9]) was 0 (Herbicidal rate of 5% or less (almost no effect)) and the “Herbicidal effect by soil treatment, N: redroot pigweed” value (redroot pigweed [10]) was 5 (Herbicidal rate of 90% or more (almost completely withered)). The “Herbicidal effect by soil treatment, O: lambsquarters” value (lambsquarters [11]) was 3 (Herbicidal rate of 40% or more and less than 70%), the “Herbicidal effect by soil treatment, P: chickweed” value (chickweed [12]) was 4 (Herbicidal rate of 70% or more and less than 90%) and the “Herbicidal effect by soil treatment, R: persian speedwell” value (persian speedwell [13]) was 4 (Herbicidal rate of 70% or more and less than 90%). The “herbicidal effect on F: southern crabgrass (evaluation grade 0-5)” value (southern crabgrass [14]) was 3 (Herbicidal rate of 40% or more and less than 70%), the “herbicidal effect on G: green foxtail (evaluation grade 0-5)” value (green foxtail [15]) was 2 (Herbicidal rate of 20% or more and less than 40%) and the “herbicidal effect on H: barnyard grass (evaluation grade 0-5)” value (barnyard grass [16]) was 5 (Herbicidal rate of 90% or more (almost completely withered)). For the same molecule, the “herbicidal effect on I: wild oat (evaluation grade 0-5)” value (wild oat [17]) was 0 (Herbicidal rate of 5% or less (almost no effect)), the “herbicidal effect on J: blackgrass (evaluation grade 0-5)” value (blackgrass [18]) was 4 (Herbicidal rate of 70% or more and less than 90%) and the “herbicidal effect on K: Italian ryegrass (evaluation grade 0-5)” value (Italian ryegrass [19]) was 4 (Herbicidal rate of 70% or more and less than 90%). For the same molecule, the “herbicidal effect on L: windgrass (evaluation grade 0-5)” value (windgrass [20]) was 4 (Herbicidal rate of 70% or more and less than 90%), the “herbicidal effect on M: velvetleaf (evaluation grade 0-5)” value (velvetleaf [21]) was 3 (Herbicidal rate of 40% or more and less than 70%) and the “herbicidal effect on N: redroot pigweed (evaluation grade 0-5)” value (redroot pigweed [22]) was 5 (Herbicidal rate of 90% or more (almost completely withered)). The “herbicidal effect on O: lambsquarters (evaluation grade 0-5)” value (lambsquarters [23]) was 4 (Herbicidal rate of 70% or more and less than 90%), the “herbicidal effect on P: chickweed (evaluation grade 0-5)” value (chickweed [24]) was 5 (Herbicidal rate of 90% or more (almost completely withered)) and the “herbicidal effect on R: persian speedwell (evaluation grade 0-5)” value (persian speedwell [25]) was 5 (Herbicidal rate of 90% or more (almost completely withered)).
